The values that follow come from publication PMC11303713, “Allosteric inhibition of CFTR gating by CFTRinh-172 binding in the pore” (Nature Communications, 2024).

The structures appear in SMILES notation. “Also recorded” adds a separate entry of the source.

For assay [1], the system named is "lock-opened" CFTR with dimerized NBDs. The arrangement: method as in Zhou et al., 2002. As to conditions: ref Zhou et al., 2002; cited from earlier work.
The test system of assay [2] is E1371Q- and W1145Y/E1371Q-CFTR. Description: Intracellular SCN- blockade, I-V voltage ramps on excised patch. Particulars: 2 mM or 10 mM cytoplasmic SCN-. Type of assay: cell-based. From the text:
Also, Sonawane and Verkman
(2008), which carried out a structure-activity relationship study, could have been considered to understand whether the moieties of CFTRinh-172 that were found important for inhibitory activity correspond to interactions with specific parts of CFTR protein.
We thank the reviewer for pointing this out. Now, these two papers are both cited, and their contents are incorporated into the 2nd and 10th paragraph of the Discussion.
4) As a control, a CFTR inhibitor having a completely different structure could have been used to check that potency was not affected by mutagenesis.
Most CFTR inhibitors block CFTR pore from the cytoplasmic side in a voltage-dependent manner, such as glibenclamide (Sheppard and Robinson, 1997), NPPB (Walsh et al., 1999), and DNDS (Linsdell and Hanrahan, 1996). Since these CFTR inhibitors likely block the open channel by traveling down the internal vestibule to the narrow region of the pore, the mutations introduced to the Inh-172’s binding site, which is just below the narrow region, would inevitably affect the actions of these CFTR blockers. […]
Comparison of intracellular SCN- blockade on E1371Q- and W1145Y/E1371Q-CFTR. […] Fraction of block was calculated according to the equation “Fraction of block = 1 – (ISCN)/I0” where ISCN and I0 represent the blocked and unblocked current at a given voltage on the same patch. […]

In the case of `COc1ccc(Cl)cc1C(=O)NCCc1ccc(S(=O)(=O)NC(=O)NC2CCCCC2)cc1` [glibenclamide], in assay [1], the off-rate is reported as ~ 10 s-1.
`N#CS` [SCN-, thiocyanate]: the “potency of SCN- (fraction of block), E1371Q- vs W1145Y/E1371Q-CFTR” value in assay [2] was “barely affected; also recorded: does not differ”.
